Reference: ChEMBL document CHEMBL4706690, “Identification of BR102910 as a selective fibroblast activation protein (FAP) inhibitor” (Bioorg Med Chem Lett, 2021)

Legend:
[1] = molecular target: Prolyl endopeptidase FAP (Homo sapiens) (UniProt Q12884); assay: Inhibition of FAP (unknown origin) at 1 uM TR-FRET assay relative to control
[2] = molecular target: T1, Prolyl endopeptidase FAP (Homo sapiens, UniProt Q12884); assay: Inhibition of FAP (unknown origin) using AMC substrate by fluorometric assay
T1 sequence (Q12884 whole entry): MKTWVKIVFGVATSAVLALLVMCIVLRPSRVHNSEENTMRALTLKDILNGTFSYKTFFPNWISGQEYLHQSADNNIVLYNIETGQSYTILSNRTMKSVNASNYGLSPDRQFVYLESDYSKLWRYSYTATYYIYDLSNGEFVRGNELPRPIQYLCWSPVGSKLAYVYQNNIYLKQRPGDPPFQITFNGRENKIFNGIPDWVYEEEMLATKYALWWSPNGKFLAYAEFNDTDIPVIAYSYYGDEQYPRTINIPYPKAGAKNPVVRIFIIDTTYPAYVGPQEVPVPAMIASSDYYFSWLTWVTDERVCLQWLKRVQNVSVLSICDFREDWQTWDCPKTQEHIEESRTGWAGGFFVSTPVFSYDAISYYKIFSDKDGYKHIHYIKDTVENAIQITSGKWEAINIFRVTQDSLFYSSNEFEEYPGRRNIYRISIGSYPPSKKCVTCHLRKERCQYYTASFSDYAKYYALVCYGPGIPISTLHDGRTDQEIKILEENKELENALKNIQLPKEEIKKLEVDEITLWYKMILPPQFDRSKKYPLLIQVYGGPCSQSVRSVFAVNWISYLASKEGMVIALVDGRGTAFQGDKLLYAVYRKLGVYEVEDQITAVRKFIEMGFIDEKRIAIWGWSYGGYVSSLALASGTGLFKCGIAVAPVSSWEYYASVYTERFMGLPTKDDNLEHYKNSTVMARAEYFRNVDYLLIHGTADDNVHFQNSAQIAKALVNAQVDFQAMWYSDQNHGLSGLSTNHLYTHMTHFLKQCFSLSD

[3] = molecular target: Dipeptidyl peptidase 4 (Homo sapiens, UniProt P27487); assay: Inhibition of DPP4 (unknown origin) using AMC substrate by fluorometric assay
[4] = molecular target: T2, Prolyl endopeptidase (Homo sapiens, UniProt P48147)
T2 sequence (P48147 whole entry): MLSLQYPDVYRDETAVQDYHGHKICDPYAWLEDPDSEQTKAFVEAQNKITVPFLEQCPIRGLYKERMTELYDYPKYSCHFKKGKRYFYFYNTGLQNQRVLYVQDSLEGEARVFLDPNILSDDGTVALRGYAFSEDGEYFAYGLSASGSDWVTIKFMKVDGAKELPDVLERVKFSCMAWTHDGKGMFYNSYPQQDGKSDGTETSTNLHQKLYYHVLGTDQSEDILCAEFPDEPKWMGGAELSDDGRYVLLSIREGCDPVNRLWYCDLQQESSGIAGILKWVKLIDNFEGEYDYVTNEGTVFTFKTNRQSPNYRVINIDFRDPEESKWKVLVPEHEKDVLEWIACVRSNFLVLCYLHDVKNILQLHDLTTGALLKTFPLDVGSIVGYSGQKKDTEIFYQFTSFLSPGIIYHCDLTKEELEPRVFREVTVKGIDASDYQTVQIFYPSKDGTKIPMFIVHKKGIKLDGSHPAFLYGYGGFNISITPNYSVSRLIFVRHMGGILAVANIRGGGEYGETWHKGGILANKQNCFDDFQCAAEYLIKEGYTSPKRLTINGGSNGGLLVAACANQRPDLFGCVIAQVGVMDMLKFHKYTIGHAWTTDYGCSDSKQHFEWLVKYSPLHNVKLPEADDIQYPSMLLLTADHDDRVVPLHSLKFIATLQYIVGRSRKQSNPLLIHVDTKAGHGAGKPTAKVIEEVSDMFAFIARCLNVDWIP
Description: Inhibition of PREP (unknown origin) using AMC substrate by fluorometric assay

Dipeptidyl peptidase 4, sequence (P27487 whole entry): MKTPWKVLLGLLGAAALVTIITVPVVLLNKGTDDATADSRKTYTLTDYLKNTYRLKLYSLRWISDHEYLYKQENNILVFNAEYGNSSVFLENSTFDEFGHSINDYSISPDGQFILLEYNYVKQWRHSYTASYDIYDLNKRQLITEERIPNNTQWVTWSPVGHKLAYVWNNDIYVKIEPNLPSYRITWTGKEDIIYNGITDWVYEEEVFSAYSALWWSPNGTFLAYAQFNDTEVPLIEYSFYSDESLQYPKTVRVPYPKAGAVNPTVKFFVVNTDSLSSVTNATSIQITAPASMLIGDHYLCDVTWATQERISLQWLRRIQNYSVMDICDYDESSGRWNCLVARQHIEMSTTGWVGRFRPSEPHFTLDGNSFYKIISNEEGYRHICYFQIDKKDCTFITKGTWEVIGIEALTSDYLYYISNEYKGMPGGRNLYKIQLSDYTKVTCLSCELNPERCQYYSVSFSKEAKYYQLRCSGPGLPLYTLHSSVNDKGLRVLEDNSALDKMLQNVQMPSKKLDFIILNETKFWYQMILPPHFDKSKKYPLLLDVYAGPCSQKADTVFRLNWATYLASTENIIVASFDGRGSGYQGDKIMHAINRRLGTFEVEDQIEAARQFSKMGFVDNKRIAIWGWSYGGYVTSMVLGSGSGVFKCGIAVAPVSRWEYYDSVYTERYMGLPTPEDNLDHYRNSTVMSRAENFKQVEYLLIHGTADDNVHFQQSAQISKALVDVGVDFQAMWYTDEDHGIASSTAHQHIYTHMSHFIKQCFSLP

Structure (SMILES)	inhibition [1]	IC50 [2]	IC50 [3]	IC50 [4]
N#C[C@@H]1CC(F)(F)CN1C(=O)CNC(=O)c1csc(-c2ccc(Cl)cc2)n1	86.7%	148 nM	–	–
N#C[C@@H]1CC(F)(F)CN1C(=O)CNC(=O)c1csc(Cc2cccc(Br)c2)n1	97.5%	35 nM	52 µM	–
N#C[C@@H]1CC(F)(F)CN1C(=O)CNC(=O)c1cccc(-c2ccc(Cl)cc2)n1	80.6%	100 nM	–	–
N#Cc1ccc(-c2ccc(Cc3nc(C(=O)NCC(=O)N4CC(F)(F)C[C@H]4C#N)cs3)cc2)cc1	98.7%	12 nM	> 100 µM	–
N#C[C@@H]1CC(F)(F)CN1C(=O)CNC(=O)c1csc(Cc2ccccc2I)n1	90.6%	78 nM	> 100 µM	–
N#C[C@@H]1CC(F)(F)CN1C(=O)CNC(=O)c1csc(-c2ccc(F)cc2)n1	90.5%	87 nM	–	1.6 µM
N#C[C@@H]1CC(F)(F)CN1C(=O)CNC(=O)c1csc(Cc2ccc(Cl)cc2Cl)n1	97.2%	1 nM	> 100 µM	–
N#C[C@@H]1CC(F)(F)CN1C(=O)CNC(=O)c1csc(Cc2ccc(F)cc2Cl)n1	95.9%	60 nM	> 100 µM	–
N#Cc1ccc(OCc2nc(C(=O)NCC(=O)N3CC(F)(F)C[C@H]3C#N)cs2)cc1	–	7 nM	> 100 µM	–
N#C[C@@H]1CC(F)(F)CN1C(=O)CNC(=O)c1csc(Cc2ccc(-c3ccc(Cl)cc3)cc2)n1	93.8%	145 nM	> 100 µM	–
N#C[C@@H]1CC(F)(F)CN1C(=O)CNC(=O)c1csc(Cc2ccc(OC(F)(F)F)cc2)n1	86.3%	22 nM	> 100 µM	–
N#C[C@@H]1CC(F)(F)CN1C(=O)CNC(=O)c1csc(CS(=O)(=O)c2ccc(C(F)(F)F)cc2)n1	–	5 nM	> 100 µM	–
N#C[C@@H]1CC(F)(F)CN1C(=O)CNC(=O)c1cnc(-c2ccc(Cl)cc2)cn1	64%	795 nM	–	–
N#C[C@@H]1CC(F)(F)CN1C(=O)CNC(=O)c1csc(CS(=O)(=O)c2ccc(Cl)c(Cl)c2)n1	–	19 nM	> 100 µM	–
Cc1ccc(SCc2nc(C(=O)NCC(=O)N3CC(F)(F)C[C@H]3C#N)cs2)cc1	–	5 nM	> 100 µM	–
N#C[C@@H]1CC(F)(F)CN1C(=O)CNC(=O)c1csc(CSc2ccc(Cl)c(Cl)c2)n1	–	119 nM	> 100 µM	–
N#Cc1ccc(S(=O)(=O)Cc2nc(C(=O)NCC(=O)N3CC(F)(F)C[C@H]3C#N)cs2)cc1	–	9 nM	76.8 µM	–
N#C[C@@H]1CC(F)(F)CN1C(=O)CNC(=O)c1coc(-c2ccc(Cl)cc2)n1	88.7%	93 nM	–	4 µM
Cc1ccc(Cc2nc(C(=O)NCC(=O)N3CC(F)(F)C[C@H]3C#N)cs2)cc1	97.8%	37 nM	68.8 µM	–
N#C[C@@H]1CC(F)(F)CN1C(=O)CNC(=O)c1csc(CSc2ccc(C(F)(F)F)cc2)n1	–	11 nM	> 100 µM	–

Structure (SMILES)	inhibition [1]	IC50 [2]	IC50 [3]	IC50 [4]
COc1ccc(Cc2nc(C(=O)NCC(=O)N3CC(F)(F)C[C@H]3C#N)cs2)cc1	98%	26 nM	> 100 µM	–
N#C[C@@H]1CC(F)(F)CN1C(=O)CNC(=O)c1csc(-c2ccc3occc3c2)n1	83.4%	446 nM	–	10 µM
CSc1ccc(Cc2nc(C(=O)NCC(=O)N3CC(F)(F)C[C@H]3C#N)cs2)cc1	99%	25 nM	> 100 µM	–
N#C[C@@H]1CC(F)(F)CN1C(=O)CNC(=O)c1csc(Cc2ccc(Br)cc2)n1	100%	16 nM	> 100 µM	–
N#C[C@@H]1CC(F)(F)CN1C(=O)CNC(=O)c1c[nH]c(-c2ccc(Cl)cc2)c1	57.8%	550 nM	–	3.62 µM
COc1ccc(-c2nc(C(=O)NCC(=O)N3CC(F)(F)C[C@H]3C#N)cs2)cc1	76.5%	214 nM	–	1.18 µM
N#Cc1ccc(SCc2nc(C(=O)NCC(=O)N3CC(F)(F)C[C@H]3C#N)cs2)cc1	–	24 nM	44.6 µM	0.138 µM
N#C[C@@H]1CC(F)(F)CN1C(=O)CNC(=O)c1csc(Cc2ccc(-n3cncn3)cc2)n1	98.3%	28 nM	18.7 µM	–
Cc1ccc(S(=O)(=O)Cc2nc(C(=O)NCC(=O)N3CC(F)(F)C[C@H]3C#N)cs2)cc1	–	20 nM	> 100 µM	–
N#C[C@@H]1CC(F)(F)CN1C(=O)CNC(=O)c1csc(Cc2cc(Cl)ccc2Cl)n1	94.5%	55 nM	> 100 µM	–
N#C[C@@H]1CC(F)(F)CN1C(=O)CNC(=O)c1csc(Cc2ccccc2-c2ccc3ccccc3c2)n1	99.3%	4 nM	> 100 µM	–
N#C[C@@H]1CC(F)(F)CN1C(=O)CNC(=O)c1csc(-c2ccc(Cl)cc2C(F)(F)F)n1	94.6%	60 nM	> 100 µM	–
CS(=O)(=O)c1ccc(Cc2nc(C(=O)NCC(=O)N3CC(F)(F)C[C@H]3C#N)cs2)cc1	98%	20 nM	10.1 µM	–
N#C[C@@H]1CC(F)(F)CN1C(=O)CNC(=O)c1csc(Cc2ccc(F)c(F)c2)n1	95.4%	47 nM	> 100 µM	–
N#C[C@@H]1CC(F)(F)CN1C(=O)CNC(=O)c1csc(Cc2ccc(-n3cccn3)cc2)n1	98.8%	23 nM	> 100 µM	–
N#C[C@@H]1CC(F)(F)CN1C(=O)CNC(=O)c1csc(COc2ccc(Cl)c(Cl)c2)n1	–	35 nM	> 100 µM	–
Cn1cc(C(=O)NCC(=O)N2CC(F)(F)C[C@H]2C#N)cc1-c1ccc(Cl)cc1	85.3%	104 nM	–	–
N#C[C@@H]1CC(F)(F)CN1C(=O)CNC(=O)c1csc(Cc2ccc(Cl)cc2)n1	98.6%	21 nM	> 100 µM	–
N#C[C@@H]1CC(F)(F)CN1C(=O)CNC(=O)c1csc(-c2ccc(-c3ccccc3)cc2)n1	84.8%	414 nM	–	10 µM
N#C[C@@H]1CC(F)(F)CN1C(=O)CNC(=O)c1csc(Cc2ccccc2Br)n1	93.7%	50 nM	0.2 µM	–
